Measured values taken from patent publication US11534457B2, “Use of dextran sulfate” (priority 2017, dated 2022).

Test system: human Schwann cells
Test: Gene expression array and pathway analysis, Schwann cells
Format: cell-based
Method: For each cell line, n=8×25 cm^2 culture flasks were set up. Two flasks were harvested for each cell type on the day of treatment (24 hours after seeding). This represents the Day0 time point. From the remaining flasks, three flasks were treated with Control Medium and three were treated with Culture Medium (CM) containing LMW-DS to give a final concentration of 0.01 mg/ml. Cells from the treated flasks were collected after 48 hours. Therefore the collected data represent (a) untreated cells (Day0 Controls and Day2 Controls) and (b) cells treated with LMW-DS for 48 hours (Day2 LMW-DS treated).
25 cm^2 flasks were coated by adding 2 ml per flask of a solution of 50 μg/ml poly-d-lysine in Hank's balanced salt solution (HBSS) and incubating overnight at 37° C. in the dark. Flasks were washed with cell culture water and air-dried for 30 min in the dark. Flasks were coated by adding 1 ml per flask of a solution of 25 μg/ml laminin in phosphate-buffered saline (PBS) and incubating for 2 hour at 37° C. in the dark. The laminin flasks were washed with PBS three times before plating cells.
Schwann cells growth medium was prepared by adding 10% of fetal bovine serum (FBS) to high-glucose DMEM and pre-warmed to 37° C. Cells were thawed in a 37° C. water bath for no longer than 2 min.
Cells from 12 vials were each gently transferred to a tube containing 10 ml of high-glucose DMEM medium and centrifuged at 400 relative centrifugal field (RCF) for 10 min. Pellet was resuspended in culture medium. The cells from the 12 vials were mixed and distributed equally into the previously coated 25 cm^2 flasks (n=8). Cells were incubated at 37° C. with 5% CO2. Cells were allowed to settle for 24 hours before LMW-DS treatment.
LMW-DS was provided at a stock concentration of 20 mg/ml and was kept in a temperature monitored refrigerator at 4° C. A fresh […]LMW-DS stock (1.0 mg/ml) was prepared in sterile DMEM-F12. The concentrated drug stock was sterile filtered and added to the respective culture media (19.6 ml CM and 0.4 ml LMW-DS stock solution). The Control was made using 19.6 ml CM and 0.4 ml of DMEM-F12. LMW-DS and CM were added to the respective flasks (5 ml each) to reach the 0.01 mg/ml concentration of LMW-DS in each dish with a total of 10 ml CM each.
CM was aspirated into a clean and labelled 15 ml Falcon tube. The flasks (without culture medium) were placed into the −80° C. freezer for 30 minutes. The CM in the Falcon tubes were spun at 3000×g for 5 minutes. Supernatant was removed and the small pellet was re-suspended in 2.5 ml Trizol:Water (4:1) solution at room temperature (RT, […]).
Two aliquots of 1 ml lysate was removed from each sample and 200 μl of chloroform was added to each (0.2 ml of chloroform per 1 ml of TRIzol Reagent used during the cell lysis step) and the tube was shaken vigorously. Samples were stored at RT for 2-3 minutes and subsequently centrifuged at 12,000×g for 15 minutes at 4° C.
The expression data were downloaded into separate files for each cell line. The ‘Background corrected’ expression is the data from the “gProcessedSignal” of the arrays that is the result of the background signal extracted from the actual signal of the relevant probe. This is the most often used variable in array analysis. The background corrected signal was log 2 transformed for all samples for statistical analysis. To reduce the false discovery rate in the samples, the signals that were below ‘expression level’ were removed. The ‘below expression’ level was set at 5 for the log 2 transformed expression values.
Based on the expression pattern of the Control probes on each array it was decided to carry out Median Centering for all arrays before analysis to reduce the variability of the results. […]

For “low molecular weight dextran sulfate [LMW-DS]”, the “Complex III (cytochrome bc1), mitochondrial oxidative stress pathway” value (0.01 mg/ml, 48 h) was “inhibited”, the “TGFβ-induced effect in adhesion of immune cells, activation and aggregation of cells, fibrosis, self-activation of TGFβ” value (0.01 mg/ml, 48 h) was “totally abolished” and the “activity and/or levels of glutamate transporters, in particular SLC1A2/3” value (0.01 mg/ml, 48 h) was “increased”. For the same substance, the “aggregate effect on pathways regulating cell movement and attachment (17 molecules)” value (0.01 mg/ml, 48 h) was “cell adhesion would be inhibited while cell movement would be activated”, the “cellular attachment from attachment-related molecules (17 differentially expressed)” value (0.01 mg/ml, 48 h) was “overall slightly increased attachment” and the “expression of protein complex (CALM, Gβγ, GRM7, PICK1)” value (0.01 mg/ml, 48 h) was “induced the expression”. The “number of genes differentially expressed, D0 control vs D2 LMW-DS treated” value (0.01 mg/ml, 48 h) was 1244 genes, the “number of genes differentially expressed, D2 control vs D2 LMW-DS treated” value (0.01 mg/ml, 48 h) was 700 genes and the “number of genes: abolished nutrient effect / no effect” value (0.01 mg/ml, 48 h) was 21. The “number of genes: abolished nutrient effect / significant downregulation” value (0.01 mg/ml, 48 h) was 1, the “number of genes: abolished nutrient effect / significant upregulation” value (0.01 mg/ml, 48 h) was 13 and the “number of genes: abolished nutrient effect / total” value (0.01 mg/ml, 48 h) was 35. The “number of genes: enhanced response to nutrients / significant downregulation” value (0.01 mg/ml, 48 h) was 122, the “number of genes: enhanced response to nutrients / significant upregulation” value (0.01 mg/ml, 48 h) was 441 and the “number of genes: enhanced response to nutrients / total” value (0.01 mg/ml, 48 h) was 563. For the same substance, the “number of genes: new effect induced by LMW-DS / significant downregulation” value (0.01 mg/ml, 48 h) was 352, the “number of genes: new effect induced by LMW-DS / significant upregulation” value (0.01 mg/ml, 48 h) was 74 and the “number of genes: new effect induced by LMW-DS / total” value (0.01 mg/ml, 48 h) was 426. The “number of genes: not different from control / significant downregulation” value (0.01 mg/ml, 48 h) was 42, the “number of genes: not different from control / significant upregulation” value (0.01 mg/ml, 48 h) was 373 and the “number of genes: not different from control / total” value (0.01 mg/ml, 48 h) was 415. For the same substance, the “number of genes: total / no effect” value (0.01 mg/ml, 48 h) was 21, the “number of genes: total / significant downregulation” value (0.01 mg/ml, 48 h) was 517 and the “number of genes: total / significant upregulation” value (0.01 mg/ml, 48 h) was 901. For the same substance, the “number of genes: total / total” value (0.01 mg/ml, 48 h) was 1439, the “upstream regulator ANGPT2: activation z-score” value (D2 LMW-DS treatment) was 1.283 and the “upstream regulator ANGPT2: predicted activation state relative D2 control” value (D2 LMW-DS treatment) was “Activated”. The “upstream regulator BMP2: activation z-score” value (D2 LMW-DS treatment) was 1.395, the “upstream regulator BMP2: predicted activation state relative D2 control” value (D2 LMW-DS treatment) was “Activated” and the “upstream regulator BMP4: activation z-score” value (D2 LMW-DS treatment) was 0.927. For the same substance, the “upstream regulator BMP4: predicted activation state relative D2 control” value (D2 LMW-DS treatment) was “Activated”, the “upstream regulator BMP7: activation z-score” value (D2 LMW-DS treatment) was 1.86 and the “upstream regulator BMP7: predicted activation state relative D2 control” value (D2 LMW-DS treatment) was “Activated”. For the same substance, the “upstream regulator EGF: activation z-score” value (D2 LMW-DS treatment) was 2.059, the “upstream regulator EGF: predicted activation state relative D2 control” value (D2 LMW-DS treatment) was “Activated” and the “upstream regulator FGF2: activation z-score” value (D2 LMW-DS treatment) was 2.37. For the same substance, the “upstream regulator FGF2: predicted activation state relative D2 control” value (D2 LMW-DS treatment) was “Activated”, the “upstream regulator GDF2: activation z-score” value (D2 LMW-DS treatment) was 2.561 and the “upstream regulator GDF2: predicted activation state relative D2 control” value (D2 LMW-DS treatment) was “Activated”. The “upstream regulator HGF: activation z-score” value (D2 LMW-DS treatment) was 1.432, the “upstream regulator HGF: predicted activation state relative D2 control” value (D2 LMW-DS treatment) was “Activated” and the “upstream regulator IGF1: activation z-score” value (D2 LMW-DS treatment) was 1.332. The “upstream regulator IGF1: predicted activation state relative D2 control” value (D2 LMW-DS treatment) was “Activated”, the “upstream regulator NRG1: activation z-score” value (D2 LMW-DS treatment) was 1.768 and the “upstream regulator NRG1: predicted activation state relative D2 control” value (D2 LMW-DS treatment) was “Activated”. For the same substance, the “upstream regulator NRTN: activation z-score” value (D2 LMW-DS treatment) was 0.958, the “upstream regulator NRTN: predicted activation state relative D2 control” value (D2 LMW-DS treatment) was “Activated” and the “upstream regulator PGF: activation z-score” value (D2 LMW-DS treatment) was 0.254. For the same substance, the “upstream regulator PGF: predicted activation state relative D2 control” value (D2 LMW-DS treatment) was “Activated”, the “upstream regulator TGFβ1: activation z-score” value (D2 LMW-DS treatment) was 1.05 and the “upstream regulator TGFβ1: predicted activation state relative D2 control” value (D2 LMW-DS treatment) was “Less inhibited”. The “upstream regulator VEGFA: activation z-score” value (D2 LMW-DS treatment) was 3.4, the “upstream regulator VEGFA: predicted activation state relative D2 control” value (D2 LMW-DS treatment) was “Activated” and the “upstream regulator WISP2: activation z-score” value (D2 LMW-DS treatment) was -0.896. For the same substance, the “upstream regulator WISP2: predicted activation state relative D2 control” value (D2 LMW-DS treatment) was “Less inhibited”.
